Earlier results on two compounds are cited in US20250381239A1, “METHOD FOR IMPROVING SLEEP QUALITY OR INCREASING SLEEP DURATION AND METHOD FOR RELIEVING PSYCHOLOGICAL STRESS” (TOYO SHINYAKU CO., LTD., priority 2024, published 2025).

For data set [1], the system named is mice. Conditions: water immersion restraint test.
Data set [2] deals with mice. Conditions: mice subjected only to psychological stress.

As to `NC(N)=Nc1nc(CSCCC(N)=NS(N)(=O)=O)cs1` [famotidine], the “Effect on physical stress ulcers” value in data set [1] is “effective”. In data set [2], the “Effect on psychological stress ulcers” value was “no effect”.

For the compound `CCN1CCCC1CNC(=O)c1cc(S(N)(=O)=O)ccc1OC` (stereo not shown) [sulpiride], in data set [1], the “Effect on physical stress ulcers” value is on record as “no effect”. In data set [2], the “Effect on psychological stress ulcers” value was “effective”.
